Literature values as cited in patent publication US6406529B1, “Method of reducing dentin sensitivity and compositions therefor” (MCG Research Institute, priority 1998, dated 2002).

Details: 3% w/v applied to dentin; in vitro and in vivo

For `O=C([O-])C(=O)O.[K+]` [monopotassium-monohydrogen oxalate], the “Hydraulic conductance of dentin” value is listed as “reduced”.
